In patent publication US11548845B2, “Methods of isolating phenols from phenol-containing media” (WISCONSIN ALUMNI RESEARCH FOUNDATION, priority 2019, dated 2023):
Values joined by “and” are separate entries in the source; they are usually repeats but may differ in a detail not shown here. Equal entries are not always repeated. Marks after values point to notes of the source that are not given here.

How the values were obtained:
[1] = surfactants of Table 2; cited from earlier work
[2] = Interaction of 1% w/v lecithin with individual polyphenols, depletion from solution by HPLC; conditions: pH 2.43, anthocyanins depleted from single-strength cranberry juice, others from aqueous solution
Protocol: Aqueous polyphenol solutions near saturation were prepared by dissolving the individual polyphenols in 50 mL ultrapure water. Depends on their solubility in water, the polyphenols solutions were made in different concentrations. […] The pH of the solution was then adjusted to ˜2.43 using 6 M HCl in order to approximate the pH of juice. The adjusted solution was centrifuged at 3220×g for 20 min to remove any undissolved solids. Next, 1% w/v lecithin was added to 10 mL of the supernatant containing the polyphenols or the phenolic acids. The mixture was vortexed for 1 min and then centrifuged at 3220×g for 20 min to pellet any precipitate. The supernatant was transferred to a 2 mL microcentrifuge tube and was centrifuged for another 20 min at 21130×g before HPLC analysis. The depletion of individual polyphenol content expressed as a percent was determined according to the following equation: Polyphenol and phenolic acid content remaining in the supernatant were quantitated by reverse phase HPLC using a Dionex Ultimate 3000 HPLC equipped with an LPG-3400 quaternary pump, a WPS-3000 analytical autosampler, a DAD-3000 diode array detector, and an FLD-3100 fluorescence detector. […] Separation was with formic acid:water (5:95, v/v) (A) and methanol (B). The flow rate was set to 1 mL/min. The gradient was initially 5% B for 1 min, then increased to 35% B over 39 min, from 35% to 95% B over the next 10 min, and held constant at 95% B for 5 min, then decreased to 5% B over 2 min, and re-equilibrated at 5% B for the remaining 8 min. The column oven was set to 30° C. The absorbance was monitored at 254, 280, 370 and 520 nm. […] The gallic acid peaks in the 280 nm chromatogram was quantitated on the basis of authentic external standards. […] The flow rate was set to 0.5 mL/min. The gradient began at 15% B for 2 min, increased to 90% B over 6 min, then decreased to 15% B over 1 min and re-equilibrated at 15% B for the remaining 1 min. The column oven was set to 25° C. We collected absorbance data at 254, 280, 370 and 520 nm. All the peaks were identified in comparison to authentic external standards.

[3] = values from literature; cited from earlier work
[4] = Depletion of monomeric anthocyanins in diluted cranberry juice by surfactants, lecithins or phospholipids (pH differential method)
Protocol: Classic Mash Cranberry Juice Concentrate with essence returned was received frozen from the supplier (Ocean Spray Cranberries Inc., Lakeville-Middleboro, Mass., U.S.A.). The concentrate came at 50.0° Brix from manufacturer. It was immediately thawed, aliquoted and stored at −20° C. until use. Prior to experiment use, the concentrate was thawed, brought to room temperature, and diluted to 7.5° Brix according to the manufacture specification.
Individual surfactants/phospholipids were added to 10 mL juice samples at a final concentration of 0.01 M. Varying amounts of lecithin were added to 10 mL juice samples at 0.05, 0.1, 0.5, 1, 2, 3, 4, or 5% w/v. Lecithin with different HLB values were added to 10 mL juice samples at 1, 2, 3, 4, or 5% w/v. All mixtures were then vortexed for 3 min and then centrifuged at 3220×g for 20 min. The centrifugation step was repeated with the supernatants. All procedures were carried out at ambient temperatures unless otherwise specified.
Monomeric anthocyanin (MA) content was determined by the AOAC pH differential method. Samples were placed in 96-well plates (Thermo Scientific) for spectral acquisition using a SpectraMax Plus Microplate Reader (Molecular Devices, Sunnyvale, Calif., U.S.A.). We used the SoftMax Pro 5.4.4 to scale for pathlength (Molecular Devices, Sunnyvale, Calif., U.S.A.). Juice samples were diluted such that the absorbance at 520 nm was within the linear range of the instrument. Triplicate samples were analyzed, and the average values are reported.
The depletion of MA expressed as a percent was determined according to the following equation: […]

[5] = cited from earlier work; for pka: phospholipid components of lecithin
[6] = 0.01M phospholipid in cranberry juice

Compound	HLB value [1]	Depletion % [2]	other results
CCCCCCCC/C=C\CCCCCCCC(=O)OCC(O)CO (racemic) [glycerol monooleate]	3.4	–	–
CCCCCCCCCCCCCCCCCC(=O)OCC(O)CO (racemic) [glycerol monostearate]	3.8	–	–
Oc1cc(O)c2c(c1)O[C@H](c1ccc(O)c(O)c1)[C@@H](O)C2 [(+)-catechin]	–	18.4%	Depletion % ([2]; listed as (+)-Catechin): 18.4±0.5%; Log P [3]: 0.51^†
Oc1cc(O)c2cc(O[C@@H]3OC[C@H](O)[C@H](O)[C@H]3O)c(-c3ccc(O)c(O)c3)[o+]c2c1 [cyanidin-3-O-arabinoside]	–	16.0%	Depletion % ([2]; listed as cyanidin-3-O-arabinose): 16.0±6.5%
OC[C@H]1O[C@@H](Oc2cc3c(O)cc(O)cc3[o+]c2-c2ccc(O)c(O)c2)[C@H](O)[C@@H](O)[C@H]1O [cyanidin-3-O-galactoside]	–	49.1±3.5% and 49.1%	–
OC[C@H]1O[C@@H](Oc2cc3c(O)cc(O)cc3[o+]c2-c2ccc(O)c(O)c2)[C@H](O)[C@@H](O)[C@@H]1O [cyanidin-3-O-glucoside]	–	45.0%	Depletion % ([2]; listed as Cyanidin-3-O-glucoside): 45.0±3.5%; Log P [3]: 0.39^†
Oc1cc(O)c2cc(O[C@H]3OC[C@H](O)[C@H](O)[C@H]3O)c(-c3cc(O)c(O)c(O)c3)[o+]c2c1 [delphinidin-3-O-arabinoside]	–	11.1%	Depletion % ([2]; listed as Delphinidin-3-O-arabinose): 11.1±4.9%
O=C(O)c1cc(O)c(O)c(O)c1 [gallic acid]	–	did not induce precipitation of lecithin	–
O=c1c(-c2ccc(O)cc2)coc2cc(O)cc(O)c12 [genistein]	–	61.0%	Depletion % ([2]; listed as Genistein): 61.0±3.8%
CCCCCCCC/C=C\CCCCCCCC(=O)OCC(CO)OC(=O)CCCCCCC/C=C\CCCCCCCC (stereo not shown) [glycerol dioleate]	1.9	–	–
CCCCCCCCCCCC(=O)OCC(O)CO (stereo not shown) [glycerol monolaurate]	5.2	–	–
CCCCCCCC/C=C\CCCCCCCC(=O)O [oleic acid]	1	–	–
COc1cc(-c2[o+]c3cc(O)cc(O)c3cc2O[C@@H]2O[C@H](CO)[C@@H](O)[C@H](O)[C@H]2O)ccc1O [peonidin-3-O-glucoside]	–	43.0±4.0% and 43.0%	–
O=c1c(O[C@@H]2O[C@H](CO)[C@H](O)[C@H](O)[C@H]2O)c(-c2ccc(O)c(O)c2)oc2cc(O)cc(O)c12 [quercetin-3-O-galactoside]	–	35.4%	Depletion % ([2]; listed as Quercetin-3-O-galactoside): 35.4±1.0%
O=c1c(O)c(-c2ccc(O)c(O)c2)oc2cc(O)cc(O)c12 [quercetin]	–	41.3%	Depletion % ([2]; listed as Quercetin): 41.3±1.8%; Log P [3]: 1.82 ± 0.32
Oc1ccc(C=Cc2cc(O)cc(O)c2)cc1 [resveratrol]	–	–	Log P [3]: 2.57^†
CCCCCCCCCCCCOS(=O)(=O)[O-].[Na+] [sodium dodecyl sulfate]	40	–	–
CCCCCCCC/C=C\CCCCCCCC(=O)[O-].[Na+] [sodium oleate]	18	–	–
L-a-phosphatidylinositol (soy) [PI]	–	–	Depletion % of monomeric anthocyanins [4, 6]: 41.4±8.5% and 41.4 ± 8.5^a %; Depletion % of monomeric anthocyanins ([4]; 0.01M phospholipid in cranberry juice, listed as Phosphatidylinositol (PI)): 41.4±8.5%; pka [5]: 2.5
Phosphatidylcholine (soy) [PC]	–	–	Depletion % of monomeric anthocyanins [4, 6]: 6.69±3.57% and 6.69 ± 3.6^b %; pka [5]: 1.0
Phosphatidylethanolamine (soy) [PE]	–	–	Depletion % of monomeric anthocyanins [4, 6]: 10.4±2.5% and 10.4 ± 2.5^b %; pKa of the amino group [5]: about 9.5; pka [5]: 1.7
hexaglycerol dioleate	9	–	–
peonidin-3-O-arabinoside	–	10.1%	Depletion % ([2]; listed as peonidin-3-O-arabinose): 10.1±6.3%
peonidin-3-O-galactoside	–	42.2%	Depletion % ([2]; listed as Peonidin-3-O-galactoside): 42.2±4.1%
sodium stearoyl lactylate	5.1	–	–
sorbitan monostearate	4.7	–	–
sorbitan tristearate [sorbitan tristearate (Span 65)]	–	–	Depletion % of monomeric anthocyanins ([4]; 0.01M surfactants in diluted cranberry juice): 2.85%; Depletion % of monomeric anthocyanins ([4]; 0.01M surfactants in diluted cranberry juice, listed as sorbitan tristearate): no significant changes
triglycerol monostearate	7	–	–
